From ChEMBL document CHEMBL1781959, “Synthesis and in vitro antitumor activity of substituted quinazoline and quinoxaline derivatives: search for anticancer agent” (Eur J Med Chem, 2011)

Columns and labels:
Type in all cases: functional
SF-268 = test: Anticancer activity against human SF268 cells assessed as cell growth promotion at 10^-5 M after 48 hrs by SRB assay relative to control
SF-295 = test: Anticancer activity against human SF295 cells assessed as cell growth promotion at 10^-5 M after 48 hrs by SRB assay relative to control
SF-539 = test: Anticancer activity against human SF539 cells assessed as cell growth promotion at 10^-5 M after 48 hrs by SRB assay relative to control
SNB-19 = test: Anticancer activity against human SNB19 cells assessed as cell growth promotion at 10^-5 M after 48 hrs by SRB assay relative to control
LOX IMVI = test: Anticancer activity against human LOXIMVI cells assessed as cell growth promotion at 10^-5 M after 48 hrs by SRB assay relative to control
Malme-3M = test: Anticancer activity against human MALME-3M cells assessed as cell growth promotion at 10^-5 M after 48 hrs by SRB assay relative to control
CCRF-CEM = test: Anticancer activity against human CCRF-CEM cells assessed as cell growth promotion at 10^-5 M after 48 hrs by SRB assay relative to control
M14 = test: Anticancer activity against human M14 cells assessed as cell growth promotion at 10^-5 M after 48 hrs by SRB assay relative to control
MDA-MB-435 = test: Anticancer activity against human MDA-MB-435 cells assessed as cell growth promotion at 10^-5 M after 48 hrs by SRB assay relative to control
SK-MEL-28 = test: Anticancer activity against human SK-MEL-28 cells assessed as cell growth promotion at 10^-5 M after 48 hrs by SRB assay relative to control
SK-MEL-5 = test: Anticancer activity against human SK-MEL-5 cells assessed as cell growth promotion at 10^-5 M after 48 hrs by SRB assay relative to control
UACC-257 = test: Anticancer activity against human UACC257 cells assessed as cell growth promotion at 10^-5 M after 48 hrs by SRB assay relative to control
UACC-62 = test: Anticancer activity against human UACC62 cells assessed as cell growth promotion at 10^-5 M after 48 hrs by SRB assay relative to control
OVCAR-5 = test: Anticancer activity against human OVCAR5 cells assessed as cell growth promotion at 10^-5 M after 48 hrs by SRB assay relative to control
OVCAR-8 = test: Anticancer activity against human OVCAR8 cells assessed as cell growth promotion at 10^-5 M after 48 hrs by SRB assay relative to control
NCI/ADR-RES = test: Anticancer activity against human NCI/ADR-RES cells assessed as cell growth promotion at 10^-5 M after 48 hrs by SRB assay relative to control
SK-OV-3 = test: Anticancer activity against human SKOV3 cells assessed as cell growth promotion at 10^-5 M after 48 hrs by SRB assay relative to control
786-0 = test: Anticancer activity against human 786-0 cells assessed as cell growth promotion at 10^-5 M after 48 hrs by SRB assay relative to control
A498 = test: Anticancer activity against human A498 cells assessed as cell growth promotion at 10^-5 M after 48 hrs by SRB assay relative to control
ACHN = test: Anticancer activity against human ACHN cells assessed as cell growth promotion at 10^-5 M after 48 hrs by SRB assay relative to control
RXF 393 = test: Anticancer activity against human RXF393 cells assessed as cell growth promotion at 10^-5 M after 48 hrs by SRB assay relative to control
SN12C = test: Anticancer activity against human SN12C cells assessed as cell growth promotion at 10^-5 M after 48 hrs by SRB assay relative to control
UO-31 = test: Anticancer activity against human UO31 cells assessed as cell growth promotion at 10^-5 M after 48 hrs by SRB assay relative to control
MCF7 = test: Anticancer activity against human MCF7 cells assessed as cell growth promotion at 10^-5 M after 48 hrs by SRB assay relative to control
K562 = test: Anticancer activity against human K562 cells assessed as cell growth promotion at 10^-5 M after 48 hrs by SRB assay relative to control
MOLT-4 = test: Anticancer activity against human MOLT4 cells assessed as cell growth promotion at 10^-5 M after 48 hrs by SRB assay relative to control
[1] = Anticancer activity against human Hs 578T cells assessed as cell growth promotion at 10^-5 M after 48 hrs by SRB assay relative to control
T47D = test: Anticancer activity against human T47D cells assessed as cell growth promotion at 10^-5 M after 48 hrs by SRB assay relative to control
MDA-MB-468 = test: Anticancer activity against human MDA-MB-468 cells assessed as cell growth promotion at 10^-5 M after 48 hrs by SRB assay relative to control
A549 = test: Anticancer activity against human A549 cells assessed as cell growth promotion at 10^-5 M after 48 hrs by SRB assay relative to control
EKVX = test: Anticancer activity against human EKVX cells assessed as cell growth promotion at 10^-5 M after 48 hrs by SRB assay relative to control
NCI-H23 = test: Anticancer activity against human NCI-H23 cells assessed as cell growth promotion at 10^-5 M after 48 hrs by SRB assay relative to control
NCI-H322M = test: Anticancer activity against human NCI-H322M cells assessed as cell growth promotion at 10^-5 M after 48 hrs by SRB assay relative to control
NCI-H460 = test: Anticancer activity against human NCI-H460 cells assessed as cell growth promotion at 10^-5 M after 48 hrs by SRB assay relative to control
HCC 2998 = test: Anticancer activity against human HCC2998 cells assessed as cell growth promotion at 10^-5 M after 48 hrs by SRB assay relative to control
HCT-116 = test: Anticancer activity against human HCT116 cells assessed as cell growth promotion at 10^-5 M after 48 hrs by SRB assay relative to control
HCT-15 = test: Anticancer activity against human HCT15 cells assessed as cell growth promotion at 10^-5 M after 48 hrs by SRB assay relative to control
KM12 = test: Anticancer activity against human KM12 cells assessed as cell growth promotion at 10^-5 M after 48 hrs by SRB assay relative to control
SW-620 = test: Anticancer activity against human SW620 cells assessed as cell growth promotion at 10^-5 M after 48 hrs by SRB assay relative to control
PC-3 = test: Anticancer activity against human PC3 cells assessed as cell growth promotion at 10^-5 M after 48 hrs by SRB assay relative to control

`C(=C\c1nc2ccccc2nc1SCc1nc2ccccc2[nH]1)/c1ccccc1` gave an Activity (SF-268) of 88.12%, an Activity (SF-295) of 58.32% and an Activity (SF-539) of 97.75%. For the same molecule, the Activity (SNB-19) was 82.87%, the Activity (LOX IMVI) was 56.83% and the Activity (Malme-3M) was 63.63%. The Activity (CCRF-CEM) was 89.58%, the Activity (M14) was 76.83% and the Activity (MDA-MB-435) was 88.93%. It also gave an Activity (SK-MEL-28) of 94.52%, an Activity (SK-MEL-5) of 17.4% and an Activity (UACC-257) of 67.72%. It also gave an Activity (UACC-62) of 61.37%, an Activity (OVCAR-5) of 95.41% and an Activity (OVCAR-8) of 82.17%. It also gave an Activity (NCI/ADR-RES) of 53.22%, an Activity (SK-OV-3) of 73.61% and an Activity (786-0) of 76.68%. It also gave an Activity (A498) of 71.11%, an Activity (ACHN) of 76.83% and an Activity (RXF 393) of 97.82%. For the same molecule, the Activity (SN12C) was 74.42%, the Activity (UO-31) was 58.6% and the Activity (MCF7) was 40.3%. It also gave an Activity (K562) of 61.44%, an Activity (MOLT-4) of 63.07% and an Activity [1] of 90.1%. The Activity (T47D) was 34.6%, the Activity (MDA-MB-468) was 39.93% and the Activity (A549) was 64.03%. It also gave an Activity (EKVX) of 22.23%, an Activity (NCI-H23) of 52.23% and an Activity (NCI-H322M) of 86.4%. It also gave an Activity (NCI-H460) of 70.22%, an Activity (HCC 2998) of 86.35% and an Activity (HCT-116) of 35.79%. For the same molecule, the Activity (HCT-15) was 96.13%, the Activity (KM12) was 79.7% and the Activity (SW-620) was 83.03%.

Work on `COc1ccc(OC)c(/C=C/c2nc3ccccc3nc2SCc2nc3ccccc3[nH]2)c1` yielded an Activity (SF-268) of 99.47%, an Activity (SF-295) of 110% and an Activity (SF-539) of 94.92%. It also gave an Activity (SNB-19) of 98.9%, an Activity (LOX IMVI) of 93.9% and an Activity (Malme-3M) of 108%. For the same molecule, the Activity (CCRF-CEM) was 81.59%, the Activity (M14) was 99.58% and the Activity (MDA-MB-435) was 105%. The Activity (SK-MEL-28) was 118%, the Activity (SK-MEL-5) was 75.46% and the Activity (UACC-257) was 111%. It also gave an Activity (UACC-62) of 80.62%, an Activity (OVCAR-5) of 101% and an Activity (OVCAR-8) of 92.09%. It also gave an Activity (NCI/ADR-RES) of 95.82%, an Activity (SK-OV-3) of 85.7% and an Activity (786-0) of 90.52%. For the same molecule, the Activity (A498) was 95.89%, the Activity (ACHN) was 94.36% and the Activity (RXF 393) was 87%. The Activity (SN12C) was 88.34%, the Activity (UO-31) was 60.33% and the Activity (PC-3) was 113%. For the same molecule, the Activity (MCF7) was 82.73%, the Activity (K562) was 90.78% and the Activity (MOLT-4) was 69.92%. The Activity [1] was 87.08%, the Activity (T47D) was 63.43% and the Activity (MDA-MB-468) was 98.24%. For the same molecule, the Activity (A549) was 90.64%, the Activity (EKVX) was 81.9% and the Activity (NCI-H23) was 92.16%. For the same molecule, the Activity (NCI-H322M) was 94.87%, the Activity (NCI-H460) was 94.48% and the Activity (HCT-116) was 73.92%. It also gave an Activity (HCT-15) of 103%, an Activity (KM12) of 97.42% and an Activity (SW-620) of 96.03%.

`NS(=O)(=O)c1ccc(NC(=O)c2ccccc2NC(=O)c2ccco2)cc1` gave an Activity (SF-268) of 98.43%, an Activity (SF-295) of 103.8% and an Activity (SF-539) of 86.82%. For the same molecule, the Activity (SNB-19) was 110.7%, the Activity (LOX IMVI) was 101.6% and the Activity (Malme-3M) was 118.8%. The Activity (CCRF-CEM) was 98.87%, the Activity (M14) was 113.1% and the Activity (MDA-MB-435) was 107.2%. For the same molecule, the Activity (SK-MEL-28) was 107.1%, the Activity (SK-MEL-5) was 108.4% and the Activity (UACC-257) was 100.1%. It also gave an Activity (UACC-62) of 107%, an Activity (OVCAR-5) of 99.82% and an Activity (OVCAR-8) of 103%. It also gave an Activity (NCI/ADR-RES) of 111%, an Activity (SK-OV-3) of 110% and an Activity (786-0) of 108%. It also gave an Activity (A498) of -23%, an Activity (ACHN) of 101% and an Activity (RXF 393) of 113%. The Activity (SN12C) was 105%, the Activity (UO-31) was 104% and the Activity (PC-3) was 118%. The Activity (MCF7) was 95.61%, the Activity (K562) was 95.39% and the Activity (MOLT-4) was 87.33%. The Activity [1] was 118%, the Activity (T47D) was 103% and the Activity (MDA-MB-468) was 106%. For the same molecule, the Activity (A549) was 106.3%, the Activity (EKVX) was 97.23% and the Activity (NCI-H23) was 110.8%. It also gave an Activity (NCI-H322M) of 119.5%, an Activity (NCI-H460) of 115.5% and an Activity (HCC 2998) of 103.3%. The Activity (HCT-116) was 109.7%, the Activity (HCT-15) was 105.5% and the Activity (KM12) was 108.4%. For the same molecule, the Activity (SW-620) was 101.9%.
